Assay results taken from ChEMBL document CHEMBL5104124, “Recent advances on synthesis and biological activities of C-17 aza-heterocycle derived steroids” (Bioorg Med Chem, 2022).

Key:
[1] = Antiproliferative activity against human WM35 cells assessed as cell growth inhibition measured after 5 days by MTT assay; format: functional, cell-based; conditions: WM35, 120 h
[2] = tested on: K562; assay: Antiproliferative activity against human K562 cells assessed as cell growth inhibition measured after 5 days by MTT assay; format: functional, cell-based; conditions: K562, 120 h
[3] = tested on: OVCAR-3; assay: Antiproliferative activity against human OVCAR-3 cells assessed as cell growth inhibition measured after 5 days by MTT assay; format: functional, cell-based; conditions: OVCAR-3, 120 h
[4] = target: Tubulin (Sus scrofa, UniProt P02554+P02550); assay: Inhibition of porcine brain tubulin polymerization preincubated for 30 mins followed by GTP addition by absorbance based analysis; format: tissue-based
[5] = tested on: T47D; assay: Antiproliferative activity against human T47D cells assessed as cell growth inhibition measured after 72 hrs by MTT assay; format: functional, cell-based
[6] = tested on: MDA-MB-361; assay: Antiproliferative activity against human MDA-MB-361 cells assessed as cell growth inhibition measured after 72 hrs by MTT assay; format: functional, cell-based; conditions: MDA-MB-361, 72 h
[7] = tested on: MCF7; assay: Antiproliferative activity against human MCF7 cells assessed as cell growth inhibition measured after 72 hrs by MTT assay; format: functional, cell-based; conditions: MCF7, 72 h
[8] = tested on: HeLa; assay: Antiproliferative activity against human HeLa cells assessed as cell growth inhibition; format: functional, cell-based
[9] = tested on: MDA-MB-231; assay: Antiproliferative activity against human MDA-MB-231 cells assessed as cell growth inhibition; format: functional, cell-based
[10] = tested on: HT-29; assay: Antiproliferative activity against human HT-29 cells assessed as cell growth inhibition; format: functional, cell-based
[11] = tested on: CCRF-CEM; assay: Antiproliferative activity against human CEM cells assessed as cell growth inhibition; format: functional, cell-based
[12] = Antiangiogenesis activity in Bovine BAEC cells assessed as increase in tube formation incubated for 18 hrs by microscopic analysis; format: functional, cell-based; conditions: Bos taurus
[13] = Antiproliferative activity against human HMEC-1 cells assessed as cell growth inhibition; format: toxicity, cell-based
[14] = Antiproliferative activity against African green monkey Vero cells assessed as cell growth inhibition; format: toxicity, cell-based; conditions: African green monkey (Chlorocebus sabaeus)
[15] = tested on: HeLa; assay: Antiproliferative activity against human HeLa cells assessed as cell growth inhibition measured after 4 days by coulter counter assay; format: functional, cell-based; conditions: 96 h
[16] = Antiproliferative activity against human HMEC-1 cells assessed as cell growth inhibition measured after 4 days by coulter counter assay; format: toxicity, cell-based
[17] = tested on: CCRF-CEM; assay: Antiproliferative activity against human CEM cells assessed as cell growth inhibition measured after 4 days by coulter counter assay; format: functional, cell-based; conditions: 96 h
[18] = tested on: MCF7; assay: Antiproliferative activity against human MCF7 cells assessed as cell growth inhibition; format: functional, cell-based
[19] = tested on: HepG2; assay: Antiproliferative activity against human HepG2 cells assessed as cell growth inhibition; format: functional, cell-based
[20] = tested on: SK-OV-3; assay: Antiproliferative activity against human SK-OV-3 cells assessed as cell growth inhibition; format: functional, cell-based
[21] = tested on: Brevibacterium; assay: Antibacterial activity against Brevibacterium assessed as inhibition of bacterial growth measured after 24 hrs by CLSI protocol based microdilution assay; format: functional
[22] = tested on: Bacillus cereus; assay: Antibacterial activity against Bacillus cereus ATCC 11778 assessed as inhibition of bacterial growth measured after 24 hrs by CLSI protocol based microdilution assay; format: functional
[23] = tested on: Staphylococcus aureus; assay: Antibacterial activity against methicillin resistant Staphylococcus aureus chicken isolate assessed as inhibition of bacterial growth measured after 24 hrs by CLSI protocol based microdilution assay; format: functional
[24] = tested on: Staphylococcus aureus; assay: Antibacterial activity against methicillin resistant Staphylococcus aureus human isolate assessed as inhibition of bacterial growth measured after 24 hrs by CLSI protocol based microdilution assay; format: functional
[25] = tested on: Staphylococcus aureus; assay: Antibacterial activity against methicillin resistant Staphylococcus aureus ATCC 25923 assessed as inhibition of bacterial growth measured after 24 hrs by CLSI protocol based microdilution assay; format: functional
[26] = tested on: Corynebacterium sp.; assay: Antibacterial activity against Corynebacterium assessed as inhibition of bacterial growth measured after 24 hrs by CLSI protocol based microdilution assay; format: functional
[27] = tested on: Enterococcus faecalis; assay: Antibacterial activity against Enterococcus faecalis ATCC 19433 assessed as inhibition of bacterial growth measured after 24 hrs by CLSI protocol based microdilution assay; format: functional
[28] = tested on: Staphylococcus aureus; assay: Antibacterial activity against Staphylococcus aureus ATCC 25923 assessed as inhibition of bacterial growth measured after 24 hrs by CLSI protocol based microdilution assay; format: functional
[29] = tested on: Staphylococcus aureus; assay: Antibacterial activity against methicillin resistant Staphylococcus aureus ATCC 43300 assessed as inhibition of bacterial growth measured after 24 hrs by CLSI protocol based microdilution assay; format: functional
[30] = tested on: Escherichia coli; assay: Antibacterial activity against Escherichia coli DSM 10233 assessed as inhibition of bacterial growth measured after 24 hrs by CLSI protocol based microdilution assay; format: functional
[31] = tested on: Candida albicans; assay: Antifungal activity against Candida albicans ATCC 10231 assessed as fungal growth inhibition measured after 24 hrs by CLSI protocol based microdilution assay; format: functional
[32] = Inhibition of Wistar rat testicular 3beta-HSD incubated for 20 mins by liquid scintillation counting analysis; format: tissue-based, Testis
[33] = tested on: Huh-7; assay: Antiproliferative activity against human Huh-7 cells assessed as cell growth inhibition by MTT assay; format: functional, cell-based
[34] = tested on: HepG2; assay: Antiproliferative activity against human HepG2 cells assessed as cell growth inhibition by MTT assay; format: functional, cell-based
[35] = tested on: SGC-7901; assay: Antiproliferative activity against human SGC-7901 cells assessed as cell growth inhibition by MTT assay; format: functional, cell-based
[36] = target: 3-oxo-5-alpha-steroid 4-dehydrogenase 1 (Homo sapiens, UniProt P18405); assay: Inhibition of human prostate SRD5A1 incubated for 60 mins by scintillation counter; format: tissue-based, Prostate gland
Sequence of 3-oxo-5-alpha-steroid 4-dehydrogenase 1 (Homo sapiens, UniProt P18405) (P18405 whole entry): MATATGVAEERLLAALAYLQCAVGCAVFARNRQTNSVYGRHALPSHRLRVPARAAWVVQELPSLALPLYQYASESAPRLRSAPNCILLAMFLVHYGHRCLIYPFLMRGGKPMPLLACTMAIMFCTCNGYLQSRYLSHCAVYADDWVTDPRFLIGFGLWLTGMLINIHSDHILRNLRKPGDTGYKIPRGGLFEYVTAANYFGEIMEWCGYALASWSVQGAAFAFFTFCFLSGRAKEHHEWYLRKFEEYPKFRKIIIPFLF

[37] = target: 3-oxo-5-alpha-steroid 4-dehydrogenase 2 (Homo sapiens, UniProt P31213); assay: Inhibition of SRD5A2 in HEK293 incubated for 60 mins by thin layer chromatography; format: cell-based
Sequence of 3-oxo-5-alpha-steroid 4-dehydrogenase 2 (Homo sapiens, UniProt P31213) (P31213 whole entry): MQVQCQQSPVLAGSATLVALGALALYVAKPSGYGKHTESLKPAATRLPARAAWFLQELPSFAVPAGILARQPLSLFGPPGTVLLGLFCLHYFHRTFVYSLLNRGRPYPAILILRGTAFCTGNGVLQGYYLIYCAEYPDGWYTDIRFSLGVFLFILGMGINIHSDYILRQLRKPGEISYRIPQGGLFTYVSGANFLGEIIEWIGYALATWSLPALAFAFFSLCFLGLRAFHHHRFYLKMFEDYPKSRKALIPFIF

[38] = target: 3-oxo-5-alpha-steroid 4-dehydrogenase 2 (Rattus norvegicus, UniProt P31214); assay: Inhibition of rat liver microsomal SRD5A2 incubated for 60 mins by thin layer chromatography; format: microsomes, Microsome
Sequence of 3-oxo-5-alpha-steroid 4-dehydrogenase 2 (Rattus norvegicus, UniProt P31214) (P31214 whole entry): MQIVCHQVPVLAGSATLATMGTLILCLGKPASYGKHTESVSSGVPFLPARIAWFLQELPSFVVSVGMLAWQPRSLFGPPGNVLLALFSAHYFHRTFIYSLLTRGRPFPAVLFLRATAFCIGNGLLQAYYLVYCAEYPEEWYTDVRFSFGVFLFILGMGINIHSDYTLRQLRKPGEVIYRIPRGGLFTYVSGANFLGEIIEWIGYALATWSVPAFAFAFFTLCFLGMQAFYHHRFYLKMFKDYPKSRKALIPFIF

[39] = target: 3-oxo-5-alpha-steroid 4-dehydrogenase 1 (Rattus norvegicus, UniProt P24008); assay: Inhibition of rat liver microsomal SRD5A1 incubated for 60 mins by thin layer chromatography; format: microsomes, Microsome
Sequence of 3-oxo-5-alpha-steroid 4-dehydrogenase 1 (Rattus norvegicus, UniProt P24008) (P24008 whole entry): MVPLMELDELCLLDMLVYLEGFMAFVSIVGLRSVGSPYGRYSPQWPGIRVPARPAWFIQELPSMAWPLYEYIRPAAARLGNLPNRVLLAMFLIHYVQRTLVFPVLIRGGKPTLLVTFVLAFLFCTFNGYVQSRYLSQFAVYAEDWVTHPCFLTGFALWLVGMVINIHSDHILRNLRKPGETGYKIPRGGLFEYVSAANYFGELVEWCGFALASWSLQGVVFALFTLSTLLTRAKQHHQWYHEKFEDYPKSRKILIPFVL

[40] = tested on: PC-3; assay: Antiproliferative activity against human PC-3 cells assessed as cell growth inhibition measured after 96 hrs by MTT assay; format: functional, cell-based; conditions: PC-3, 96 h
[41] = tested on: LNCaP; assay: Antiproliferative activity against human LNCaP cells assessed as cell growth inhibition measured after 96 hrs by MTT assay; format: functional, cell-based
[42] = tested on: HepG2; assay: Antiproliferative activity against human HepG2 cells assessed as cell growth inhibition measured after 24 hrs by MTT assay; format: functional, cell-based; conditions: HepG2, 24 h
[43] = tested on: MGC-803; assay: Antiproliferative activity against human MGC-803 cells assessed as cell growth inhibition measured after 72 hrs by MTT assay; format: functional, cell-based; conditions: MGC-803, 72 h
[44] = tested on: EC9706; assay: Antiproliferative activity against human EC9706 cells assessed as cell growth inhibition measured after 72 hrs by MTT assay; format: functional, cell-based; conditions: EC9706, 72 h
[45] = tested on: ECa-109 cell line; assay: Antiproliferative activity against human EC109 cells assessed as cell growth inhibition measured after 72 hrs by MTT assay; format: functional, cell-based; conditions: ECa-109, 72 h

COc1cc2c(cc1O)CC[C@@H]1[C@@H]2CC[C@]2(C)[C@@H](c3cn(-c4ccc(OC(F)(F)F)cc4)nn3)CC[C@@H]12
IC50 [1]: 2.9 µM | IC50 [2]: 0.7 µM | IC50 [3]: 0.9 µM | IC50 [4]: 5.9 µM

C[C@]12CC[C@H](O)CC1=CC[C@@H]1[C@@H]2CC[C@]2(C)C3=NN(c4ccc(C#N)cc4)C[C@@H]3C[C@@H]12
IC50 [5]: 1.45 µM | IC50 [6]: 0.94 µM | IC50 [7]: 1.1 µM

COc1cc2c(cc1OS(N)(=O)=O)CC[C@@H]1[C@@H]2CC[C@]2(C)C(c3cncc(Cl)c3)=CC[C@@H]12
IC50 [8]: 0.37 µM | IC50 [9]: 0.11 µM | IC50 [10]: 0.11 µM | IC50 [11]: 0.039 µM | IC50 [12]: 0.2 µM | IC50 [13]: 0.4 µM | IC50 [14]: 0.03 µM | IC50 [4]: 2.1 µM

C[C@]12CC[C@H](O)CC1=CC[C@@H]1[C@@H]2CC[C@]2(C)C(c3ccc4[nH]ccc4c3)=CC[C@@H]12
IC50 [15]: 2.9 µM | IC50 at 4 days [16]: 0.59 µM | IC50 [17]: 1.5 µM

C[C@]12CC[C@H]3[C@@H](CC=C4C[C@@H](O)CC[C@@]43C)[C@@H]1CC[C@@H]2c1cc(-c2ccc(O)cc2)c(C#N)c(N)n1
IC50 [8]: 8.14 µM | IC50 [18]: 8.81 µM | IC50 [19]: 12.4 µM | IC50 [20]: 5.08 µM

CCCCCCn1c[n+](CCCCCC)c2c1[C@@]1(C)CC[C@H]3[C@@H](CC=C4C[C@@H](O)CC[C@@]43C)[C@@H]1C2.[I-]
MIC [21]: 0.5 µg/mL | MIC [22]: 1 µg/mL | MIC [23]: 1 µg/mL | MIC [24]: 1 µg/mL | MIC [25]: 0.5 µg/mL | MIC [26]: 8 µg/mL | MIC [27]: 4 µg/mL | MIC [28]: 0.5 µg/mL | MIC [29]: 1 µg/mL | MIC [30]: 4 µg/mL | MIC [31]: 1 µg/mL

COC(=O)c1cc([C@H]2CC[C@H]3[C@@H]4CCC5=CC(=O)CC[C@]5(C)[C@H]4CC[C@]23C)n(-c2ccc(OC)cc2)n1
IC50 [32]: 0.42 µM

C[C@]12CC[C@H](O)CC1=CC[C@@H]1[C@@H]2CC[C@]2(C)c3nc(N)nc(-c4ccccc4Cl)c3C[C@@H]12
IC50 [33]: 5.65 µM | IC50 [34]: 5.41 µM | IC50 [35]: 10.6 µM

C[C@]12CC[C@H](O)CC1=CC[C@@H]1[C@@H]2CC[C@]2(C)C(c3ccn(-c4ccc(Cl)cc4)n3)=CC[C@@H]12
IC50 [36]: 0.0142 µM | IC50 [37]: 0.0353 µM

C[C@]12CC[C@H](OC(=O)C3CC3)CC1=CC[C@@H]1[C@@H]2CC[C@]2(C)C(n3cnc4ccccc43)=C(C=O)C[C@@H]12
IC50 [38]: 0.004 µM | IC50 [39]: 0.32 µM

CC(=O)N1N=C(C2=CC[C@H]3[C@@H]4CC=C5C[C@@H](O)CC[C@]5(C)[C@H]4CC[C@]23C)C[C@H]1c1ccc(F)cc1
IC50 [36]: 0.0139 µM | IC50 [37]: 0.0273 µM

COc1cc2c(cc1O)CC[C@@H]1[C@@H]2CC[C@]2(C)[C@@H](c3cn(-c4ccc(C(F)(F)F)cc4)nn3)CC[C@@H]12
IC50 [1]: 1.9 µM | IC50 [2]: 1 µM | IC50 [3]: 1.4 µM | IC50 [4]: 8.1 µM

C[C@]12CC[C@H](O)CC1=CC[C@@H]1[C@@H]2CC[C@]2(C)C(c3nc4ccccc4[nH]3)=CC[C@@H]12
IC50 [40]: 6.9 µM | IC50 [41]: 3.8 µM

CCCCCCCn1c[n+](CCCCCCC)c2c1[C@@]1(C)CC[C@H]3[C@@H](CC=C4C[C@@H](O)CC[C@@]43C)[C@@H]1C2.[I-]
MIC [21]: 0.25 µg/mL | MIC [22]: 0.5 µg/mL | MIC [23]: 0.5 µg/mL | MIC [24]: 1 µg/mL | MIC [25]: 1 µg/mL | MIC [26]: 1 µg/mL | MIC [27]: 1 µg/mL | MIC [28]: 0.25 µg/mL | MIC [29]: 1 µg/mL | MIC [30]: 4 µg/mL | MIC [31]: 1 µg/mL

C[C@]12CC[C@H](O)CC1=CC[C@@H]1[C@@H]2CC[C@]2(C)C(n3cnc4ccccc43)=C(C=O)C[C@@H]12
IC50 [38]: 0.127 µM

COc1ccncc1C1=CC[C@H]2[C@@H]3CC=C4C[C@@H](OC(=O)[C@H](O)[C@@H](NC(=O)c5ccccc5)c5ccccc5)CC[C@]4(C)[C@H]3CC[C@]12C
IC50 [42]: 67.7 µM

C[C@]12CC[C@H](O)CC1=CC[C@@H]1[C@@H]2CC[C@]2(C)c3nc(NCc4ccc(Cl)cc4)sc3C[C@@H]12
IC50 [43]: 10.3 µM | IC50 [44]: 39.3 µM | IC50 [45]: 0.196 µM

COc1cc2c(cc1OS(N)(=O)=O)CC[C@@H]1[C@@H]2CC[C@]2(C)C(c3ccnc(Cl)c3)=CC[C@@H]12
IC50 [8]: 1.6 µM | IC50 [10]: 0.43 µM | IC50 [11]: 0.26 µM | IC50 [12]: 0.1 µM | IC50 [13]: 2.3 µM | IC50 [14]: 1.3 µM | IC50 [4]: 2.3 µM
